Target: p45MEK (GST-MEK) (Homo sapiens, UniProt Q02750)
Experiment: Cascade assay for inhibitors of the MAP kinase pathway (in vitro)
Type: biochemical
Procedure: Incorporation of ^32P into myelin basic protein (MBP) was assayed in the presence of a glutathione S-transferase fusion protein containing p44MAP kinase (GST-MAPK) and a glutathione S-transferase fusion protein containing p45MEK (GST-MEK). The assay solution contained 20 mM HEPES, pH 7.4, 10 mM MgCl2, 1 mM MnCl2, 1 mM EGTA, 50 μM [γ-^32P]ATP, 10 μg GST-MEK, 0.5 μg GST-MAPK and 40 μg MBP in a final volume of 100 μL. […] Compounds were assessed at 10 μM for ability to inhibit incorporation of ^32P.
To ascertain whether compounds were inhibiting GST-MEK or GST MAPK, two additional protocols were employed. In the first protocol, compounds were added to tubes containing GST-MEK, followed by addition of GST-MAPK, MBP and [γ-^32P]ATP. In the second protocol, compounds were added to tubes containing both GST-MEK and GST-MAPK, followed by MBP and [γ-^32P]ATP.

p45MEK (GST-MEK), sequence (Q02750 whole entry): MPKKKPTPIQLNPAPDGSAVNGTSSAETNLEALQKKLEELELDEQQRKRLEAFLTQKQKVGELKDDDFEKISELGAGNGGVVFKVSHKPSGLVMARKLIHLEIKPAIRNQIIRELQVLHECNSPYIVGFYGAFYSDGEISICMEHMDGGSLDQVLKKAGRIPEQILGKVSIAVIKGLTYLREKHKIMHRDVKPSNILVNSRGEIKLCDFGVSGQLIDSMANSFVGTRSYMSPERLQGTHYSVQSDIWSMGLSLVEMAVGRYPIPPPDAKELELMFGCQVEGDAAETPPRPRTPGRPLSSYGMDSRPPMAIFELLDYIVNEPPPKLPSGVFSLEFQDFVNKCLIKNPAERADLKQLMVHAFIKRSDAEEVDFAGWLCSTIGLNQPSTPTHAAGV

Row | SMILES | IC50 [nM]
1 | Cc1cc(I)ccc1Nc1c(C(=O)NOC2CCCCO2)cc(Br)c(F)c1F (stereo not drawn) [Example 86, 5-Bromo-3,4-difluoro-2-(4-iodo-2-methyl-phenylamino)-N-(tetrahydro-pyran-2-yloxy)-benzamide] | 47
2 | Cc1cc(I)ccc1Nc1cc(F)ccc1C(=O)NOCc1ccccc1 [Example 12, 4-Fluoro-2-(4-iodo-2-methyl-phenylamino)-N-phenylmethoxy-benzamide] | 826
3 | Cc1cc(I)ccc1Nc1cc(F)ccc1C(=O)NOCC1CC1 [Example 55, N-Cyclopropylmethoxy-4-fluoro-2-(4-iodo-2-methyl-phenylamino)-benzamide] | 47
4 | CCONC(=O)c1ccc(F)c(F)c1Nc1ccc(I)cc1C [Example 40, N-Ethoxy-3,4-difluoro-2-(4-iodo-2-methyl-phenylamino)-benzamide] | 28
5 | Cc1cc(I)ccc1Nc1c(C(=O)NOC(C)C)ccc(F)c1F [Example 47, 3,4-Difluoro-2-(4-iodo-2-methyl-phenylamino)-N-isopropoxy-benzamide] | 87
6 | Cc1cc(Br)ccc1Nc1c(C(=O)NOCc2ccoc2)ccc(F)c1F [Example 22, 2-(4-Bromo-2-methyl-phenylamino)-3,4-difluoro-N-(furan-3-ylmethoxy)-benzamide] | 137
7 | Cc1ccccc1Nc1cc(F)ccc1C(=O)NO [Example 9, 4-Fluoro-N-hydroxy-2-(2-methylphenylamino)-benzamide] | 409
8 | O=C(NOC1CCCCO1)c1ccc(F)c(F)c1Nc1ccc(I)cc1Cl (stereo not drawn) [Example 90, 3,4-Difluoro-2-(2-chloro-4-iodo-phenylamino)-N-(tetrahydro-pyran-2-yloxy)-benzamide] | 55
9 | CONC(=O)c1cc(Cl)ccc1Nc1ccc(I)cc1C [Example 7, 5-Chloro-2-(4-iodo-2-methyl-phenylamino)-N-methoxybenzamide] | 221
10 | C=C(C)CONC(=O)c1ccc(F)cc1Nc1ccc(I)cc1C [Example 65, 4-Fluoro-2-(4-iodo-2-methyl-phenylamino)-N-(2-methyl-allyloxy)-benzamide] | 57
11 | CC=CCONC(=O)c1ccc(F)cc1Nc1ccc(I)cc1C [Example 68, N-(But-2-enyloxy)-4-fluoro-2-(4-iodo-2-methyl-phenylamino)-benzamide] | 119
12 | CONC(=O)c1ccc(F)c(F)c1Nc1ccc(I)cc1C [Example 14, 3,4-Difluoro-2-(4-iodo-2-methyl-phenylamino)-N-methoxy-benzamide] | 61

Now those with a lower IC50, led by results:

Row | IC50 [nM] | SMILES
13 | 24 | Cc1cc(I)ccc1Nc1c(C(=O)NOCCN2CCCCC2)cc(Br)c(F)c1F [Example 85, 3,4-Difluoro-5-bromo-2-(4-iodo-2-methyl-phenylamino)-N-(2-piperidin-1-yl-ethoxy)-benzamide]
14 | 19 | Cc1cc(I)ccc1Nc1c(C(=O)NOCc2cccs2)ccc(F)c1F [Example 63, 3,4-Difluoro-2-(4-iodo-2-methyl-phenylamino)-N-(thiophen-2-ylmethoxy)-benzamide]
15 | 16 | Cc1cc(I)ccc1Nc1c(C(=O)NOCc2ccoc2)cc(Br)c(F)c1F [Example 23, 5-Bromo-3,4-difluoro-N-(furan-3-ylmethoxy)-2-(4-iodo-2-methyl-phenylamino)-benzamide]
16 | 15 | Cc1cc(I)ccc1Nc1c(C(=O)NOCCN2CCOCC2)cc(Br)c(F)c1F [Example 97, 5-Bromo-3,4-difluoro-2-(4-iodo-2-methyl-phenylamino)-N-(2-morpholin-4-yl-ethoxy)-benzamide]
17 | 14 | CCONC(=O)c1cc(Br)c(F)c(F)c1Nc1ccc(I)cc1C [Example 17, 5-Bromo-N-ethoxy-3,4-difluoro-2-(4-iodo-2-methyl-phenylamino)-benzamide]
18 | 8 | Cc1cc(I)ccc1Nc1c(C(=O)NOCC2CC2)cc(F)c(F)c1F [Example 79, N-Cyclopropylmethoxy-3,4,5-trifluoro-2-(4-iodo-2-methyl-phenylamino)-benzamide]

— US7169816B2, “4-bromo or 4-iodo phenylamino benzhydroxamic acid derivatives and their use as MEK inhibitors” (Warner-Lambert Company, priority 1997, dated 2007)
